For 22 molecules, IC50 results are on record in patent US9630929B2, “Benzenesulfonamide compounds and their use as therapeutic agents” (XENON PHARMACEUTICALS INC., priority 2011, dated 2017).

Molecules are shown by their SMILES. pIC50: −log10 of the molar value.

For assay [1], the target named is T1, NaV1.7 (Homo sapiens (Human), UniProt Q15858). Nature of the assay: Patch voltage clamp electrophysiology (EP), affinity for the inactivated state of Nav1.7. The following applies: HEK-293 cells expressing human Nav1.7 with β1 subunit. The format is cell-based. As for the experimental part:
The following patch voltage clamp electrophysiology studies were performed on representative compounds of the invention using human embryonic kidney cells (HEK), permanently transfected with an expression vector containing the full-length cDNA coding for the desired human sodium channel α-subunit, grown in culture media containing 10% FBS, 1% PSG, and 0.5 mg/mL G418 at 37° C. with 5% CO2. […] Nav1.7 and Nav1.5 cDNAs (NM_002977 and AC137587; SCN5A, respectively) were stably expressed in HEK-293 cells. The β1 subunit was coexpressed only in the Nav1.7 cell line.
Sodium currents were measured using the patch clamp technique in the whole-cell configuration using either a PatchXpress automated voltage clamp or manually using an Axopatch 200B (Axon Instruments) or Model 2400 (A-M systems) amplifier. […] The pipette was filled with a solution comprised of: 5 mM NaCl, 10 mM CsCl, 120 mM CsF, 0.1 mM CaCl2, 2 mM MgCl2, 10 mM HEPES, 10 mM EGTA; and adjusted to pH 7.2 with CsOH. The external solution had the following composition: 140 mM NaCl, 5 mM KCl, 2 mM CaCl2, 1 mM MgCl2, 10 mM HEPES; and adjusted to pH 7.4 with NaOH. In some studies, the external sodium was reduced by equimolar replacement with choline. Osmolarity in the CsF internal and NaCl external solutions was adjusted to 300 mOsm/kg and 310 mOsm/kg with glucose, respectively. All recordings were performed at ambient temperature in a bath chamber with a volume of 150 μL. Control sodium currents were measured in 0.5% DMSO. Controls and representative compounds of the invention were applied to the recording chamber through a 4-pinch or 8-pinch valve bath perfusion system manufactured by ALA Scientific Instruments.
Series resistance compensation was applied (60-80%). […] All statistics in this study are given as mean±SD.
The membrane potential was maintained at a voltage where inactivation of the channel is complete (which was −60 mV for both Nav1.7 and Nav1.5). The voltage is then stepped back to a very negative (Vhold=−150 mV) voltage for 20 ms and then a test pulse is applied to quantify the compound block. […] The percent decrease in sodium current following wash-on of compound was taken as the percent block of sodium channels.
The Example numbers provided in Table 1 and Table 2 correspond to the Examples herein: […]

For assay [2], the target named is T1, NaV1.7. Nature of the assay: NaV flux assay, inhibition of NaV1.7. The format is cell-based. The following applies: NaV flux data, included when EP data is not available.

T1 sequence (Q15858 other isoform, or with tags, fused parts or gaps): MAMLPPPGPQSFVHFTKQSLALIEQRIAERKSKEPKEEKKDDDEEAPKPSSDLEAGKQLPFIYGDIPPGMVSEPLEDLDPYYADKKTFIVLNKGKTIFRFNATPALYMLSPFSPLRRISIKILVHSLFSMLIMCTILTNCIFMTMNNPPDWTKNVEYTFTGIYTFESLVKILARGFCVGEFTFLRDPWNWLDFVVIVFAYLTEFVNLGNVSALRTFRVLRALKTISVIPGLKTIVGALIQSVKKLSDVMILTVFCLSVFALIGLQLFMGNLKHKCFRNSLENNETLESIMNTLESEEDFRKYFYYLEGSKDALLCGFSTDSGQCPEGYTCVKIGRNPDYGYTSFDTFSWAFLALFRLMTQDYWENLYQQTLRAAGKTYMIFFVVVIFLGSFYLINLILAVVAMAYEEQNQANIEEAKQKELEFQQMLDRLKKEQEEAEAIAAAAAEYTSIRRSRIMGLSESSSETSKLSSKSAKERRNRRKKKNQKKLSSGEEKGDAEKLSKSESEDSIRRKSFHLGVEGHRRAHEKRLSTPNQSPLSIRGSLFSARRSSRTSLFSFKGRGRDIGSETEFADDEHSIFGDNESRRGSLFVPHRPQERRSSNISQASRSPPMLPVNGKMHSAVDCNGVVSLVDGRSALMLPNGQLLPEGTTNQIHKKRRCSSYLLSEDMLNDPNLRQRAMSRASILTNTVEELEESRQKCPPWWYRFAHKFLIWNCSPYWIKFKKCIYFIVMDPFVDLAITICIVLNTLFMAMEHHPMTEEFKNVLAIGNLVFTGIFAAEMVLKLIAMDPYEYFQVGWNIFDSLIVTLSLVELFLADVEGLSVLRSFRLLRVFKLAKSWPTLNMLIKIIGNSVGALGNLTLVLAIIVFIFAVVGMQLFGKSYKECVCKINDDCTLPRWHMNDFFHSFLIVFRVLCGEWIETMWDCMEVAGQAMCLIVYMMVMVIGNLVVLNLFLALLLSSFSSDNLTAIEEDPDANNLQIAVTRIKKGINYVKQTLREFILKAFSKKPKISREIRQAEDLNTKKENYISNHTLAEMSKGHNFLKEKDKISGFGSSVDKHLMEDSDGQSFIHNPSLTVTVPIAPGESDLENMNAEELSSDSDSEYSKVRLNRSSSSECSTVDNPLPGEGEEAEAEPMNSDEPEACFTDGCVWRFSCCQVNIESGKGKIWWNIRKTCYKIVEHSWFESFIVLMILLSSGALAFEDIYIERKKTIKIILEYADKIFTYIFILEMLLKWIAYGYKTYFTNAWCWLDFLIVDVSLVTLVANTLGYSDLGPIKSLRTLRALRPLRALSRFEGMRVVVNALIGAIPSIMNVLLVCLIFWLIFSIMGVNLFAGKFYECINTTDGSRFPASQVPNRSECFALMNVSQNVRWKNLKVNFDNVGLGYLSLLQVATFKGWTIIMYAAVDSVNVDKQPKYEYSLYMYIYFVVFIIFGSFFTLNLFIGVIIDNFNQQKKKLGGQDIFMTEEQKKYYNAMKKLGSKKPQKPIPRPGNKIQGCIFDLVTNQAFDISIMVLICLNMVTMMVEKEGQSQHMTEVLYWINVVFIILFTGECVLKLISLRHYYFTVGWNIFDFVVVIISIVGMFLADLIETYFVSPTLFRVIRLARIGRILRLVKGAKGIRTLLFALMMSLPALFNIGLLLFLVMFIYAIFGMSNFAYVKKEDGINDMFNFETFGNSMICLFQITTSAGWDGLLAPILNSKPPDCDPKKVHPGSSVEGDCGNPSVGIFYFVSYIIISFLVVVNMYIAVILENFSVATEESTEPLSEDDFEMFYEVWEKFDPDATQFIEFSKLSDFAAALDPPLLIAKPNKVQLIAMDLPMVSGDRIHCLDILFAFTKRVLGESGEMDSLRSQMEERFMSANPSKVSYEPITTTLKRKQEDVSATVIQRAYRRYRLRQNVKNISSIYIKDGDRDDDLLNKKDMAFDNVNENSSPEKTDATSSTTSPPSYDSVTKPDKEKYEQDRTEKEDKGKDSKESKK
T1 sequence (Q07699 19-218 partner): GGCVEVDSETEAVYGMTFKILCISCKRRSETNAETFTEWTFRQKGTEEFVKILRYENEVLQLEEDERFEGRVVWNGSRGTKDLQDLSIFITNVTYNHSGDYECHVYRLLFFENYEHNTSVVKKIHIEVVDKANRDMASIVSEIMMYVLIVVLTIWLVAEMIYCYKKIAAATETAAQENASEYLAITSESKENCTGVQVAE

What is called pIC50 is −log10 of the IC50, conventionally taken in molar units. In the case of `O=S(=O)(Nc1ncns1)c1cc(F)c(OC[C@@H]2CNCC[C@H]2c2ccc(Cl)cc2)cc1F` (relative stereo) [Example 44, 4-((trans-4-(4-chlorophenyl)piperidin-3-yl)methoxy)-2,5-difluoro-N-(1,2,4-thiadiazol-5-yl)benzenesulfonamide], at NaV1.7 [1] (read-out: NaV1.7 (IC50 class)), the pIC50 is greater than 7.00.
For `O=S(=O)(Nc1ncccn1)c1cc(F)c(OC[C@@H]2CNCC[C@H]2c2ccc(Cl)cc2)cc1F` (relative stereo) [Example 49, 4-((trans-4-(4-chlorophenyl)piperidin-3-yl)methoxy)-2,5-difluoro-N-(pyrimidin-2-yl)benzenesulfonamide], the results for the pIC50 at NaV1.7 [1] (read-out: NaV1.7 (IC50 class)) and at NaV1.7 [1] (read-out: NaV1.7 IC50) were greater than 7.00 and 7.27, respectively.
Consider `O=S(=O)(Nc1ncccn1)c1cc(F)c(OC[C@@H]2CNCC[C@H]2c2ccc(F)cc2)cc1F` (relative stereo) [Example 50, 2,5-difluoro-4-((trans-4-(4-fluorophenyl)piperidin-3-yl)methoxy)-N-(pyrimidin-2-yl)benzenesulfonamide], for which the pIC50 was 6.00 to 7.00 on NaV1.7 [1] (read-out: NaV1.7 (IC50 class)) and 6.49 at NaV1.7 [1] (read-out: NaV1.7 IC50).
For `O=S(=O)(Nc1nncs1)c1cc(F)c(OC[C@@H]2CNCC[C@H]2c2ccc(Cl)cc2)cc1F` (relative stereo) [Example 51, 4-((trans-4-(4-chlorophenyl)piperidin-3-yl)methoxy)-2,5-difluoro-N-(1,3,4-thiadiazol-2-yl)benzenesulfonamide], in that order: greater than 7.00 and 7.07.
Turning to `Cc1nsc(NS(=O)(=O)c2cc(F)c(OC[C@@H]3CNCC[C@H]3c3ccc(Cl)cc3)cc2F)n1` (relative stereo) [Example 52, 4-((trans-4-(4-chlorophenyl)piperidin-3-yl)methoxy)-2,5-difluoro-N-(3-methyl-1,2,4-thiadiazol-5-yl)benzenesulfonamide], the values for the pIC50 on NaV1.7 [1] (read-out: NaV1.7 (IC50 class)) and on NaV1.7 [1] (read-out: NaV1.7 IC50) were 6.00 to 7.00 and 6.71, respectively.
For `O=S(=O)(Nc1ncns1)c1cc(F)c(OC[C@@H]2CNC[C@H]2c2ccc(Cl)cc2)cc1F` (relative stereo) [Example 54, 4-((trans-4-(4-chlorophenyl)pyrrolidin-3-yl)methoxy)-2,5-difluoro-N-(1,2,4-thiadiazol-5-yl)benzenesulfonamide], in that order: greater than 7.00 and 7.30.
As for `Cc1cc(NS(=O)(=O)c2cc(F)c(OC[C@@H]3CNCC[C@H]3c3ccc(Cl)cc3)cc2F)no1` (relative stereo) [Example 56, 4-((trans-4-(4-chlorophenyl)piperidin-3-yl)methoxy)-2,5-difluoro-N-(5-methylisoxazol-3-yl)benzenesulfonamide], the pIC50 at NaV1.7 [1] (read-out: NaV1.7 (IC50 class)) was 5.00 to 6.00; at NaV1.7 [1] (read-out: NaV1.7 IC50) it was 5.72.
In the case of `Cc1cnc(NS(=O)(=O)c2cc(F)c(OC[C@@H]3CNCC[C@H]3c3ccc(Cl)cc3)cc2F)s1` (relative stereo) [Example 57, 4-((trans-4-(4-chlorophenyl)piperidin-3-yl)methoxy)-2,5-difluoro-N-(5-methylthiazol-2-yl)benzenesulfonamide], the figures for the pIC50 on NaV1.7 [1] (read-out: NaV1.7 (IC50 class)) and at NaV1.7 [1] (read-out: NaV1.7 IC50) were 6.00 to 7.00 and 6.94, respectively.
On to `O=S(=O)(Nc1ccc(F)cn1)c1cc(F)c(OC[C@@H]2CNCC[C@H]2c2ccc(Cl)cc2)cc1F` (relative stereo) [Example 63, 4-((trans-4-(4-chlorophenyl)piperidin-3-yl)methoxy)-2,5-difluoro-N-(5-fluoropyridin-2-yl)benzenesulfonamide], for which the pIC50 at NaV1.7 [1] (read-out: NaV1.7 (IC50 class)) is greater than 7.00; at NaV1.7 [1] (read-out: NaV1.7 IC50), 7.15.
Regarding `O=S(=O)(Nc1cccnn1)c1cc(F)c(OC[C@@H]2CNCC[C@H]2c2ccc(Cl)cc2)cc1F` (relative stereo) [Example 65, 4-((trans-4-(4-chlorophenyl)piperidin-3-yl)methoxy)-2,5-difluoro-N-(pyridazin-3-yl)benzenesulfonamide], the pIC50 was 6.00 to 7.00 at NaV1.7 [1] (read-out: NaV1.7 (IC50 class)) and 6.77 at NaV1.7 [1] (read-out: NaV1.7 IC50).
For the molecule `O=S(=O)(Nc1ncns1)c1cc(F)c(OC[C@H]2CNCC[C@H]2c2ccc(Cl)cc2)cc1F` (relative stereo) [Example 66, 4-((cis-4-(4-chlorophenyl)piperidin-3-yl)methoxy)-2,5-difluoro-N-(1,2,4-thiadiazol-5-yl)benzenesulfonamide], the pIC50 at NaV1.7 [1] (read-out: NaV1.7 IC50) is 6.62.
`O=S(=O)(Nc1ncns1)c1cc(F)c(OC[C@@H]2CCCC[C@H]2c2ccc(F)cc2)cc1F` (relative stereo) [Example 68, 2,5-difluoro-4-((trans-2-(4-fluorophenyl)cyclohexyl)methoxy)-N-(1,2,4-thiadiazol-5-yl)benzenesulfonamide]: the figures for the pIC50 on NaV1.7 [1] (read-out: NaV1.7 (IC50 class)) and at NaV1.7 [1] (read-out: NaV1.7 IC50) were 6.00 to 7.00 and 6.55, respectively.
Consider `CC(C)(C)OC(=O)N1CC[C@@H](c2ccc(Cl)cc2)[C@H](COc2cc(F)c(S(=O)(=O)Nc3ncns3)cc2F)C1` (relative stereo) [Example 69, trans-tert-butyl 3-((4-(N-(1,2,4-thiadiazol-5-yl)sulfamoyl)-2,5-difluorophenoxy)methyl)-4-(4-chlorophenyl)piperidine-1-carboxylate], for which the pIC50 at NaV1.7 [1] (read-out: NaV1.7 (IC50 class)) was 6.00 to 7.00; on NaV1.7 [1] (read-out: NaV1.7 IC50) it was 6.79.
On to `Cn1cns/c1=N/S(=O)(=O)c1cc(F)c(OC[C@@H]2CNCC[C@H]2c2ccc(Cl)cc2)cc1F` (relative stereo) [Example 78, (E)-4-((trans-4-(4-chlorophenyl)piperidin-3-yl)methoxy)-2,5-difluoro-N-(4-methyl-1,2,4-thiadiazol-5(4H)-ylidene)benzenesulfonamide], for which the pIC50 against NaV1.7 [2] was 5.39.
Take `O=S(=O)(Nc1ncns1)c1cc(F)c(OC[C@@H]2CN(CCF)CC[C@H]2c2ccc(Cl)cc2)cc1F` (relative stereo) [Example 80, 4-((trans-4-(4-chlorophenyl)-1-(2-fluoroethyl)piperidin-3-yl)methoxy)-2,5-difluoro-N-(1,2,4-thiadiazol-5-yl)benzenesulfonamide]: the results for the pIC50 at NaV1.7 [1] (read-out: NaV1.7 (IC50 class)) and at NaV1.7 [1] (read-out: NaV1.7 IC50) were greater than 7.00 and 7.03, respectively.
`O=S(=O)(Nc1ncns1)c1cc(F)c(OC[C@@H]2CNCC[C@H]2c2ccc(Cl)cc2)c(F)c1` (relative stereo) [Example 81, 4-((trans-4-(4-chlorophenyl)piperidin-3-yl)methoxy)-3,5-difluoro-N-(1,2,4-thiadiazol-5-yl)benzenesulfonamide] gave a pIC50 against NaV1.7 [2] of 5.63.
`O=S(=O)(Nc1ncns1)c1cc(F)c(OC[C@@H]2CCNC[C@H]2c2ccc(F)cc2)cc1F` (relative stereo) [Example 82, 2,5-difluoro-4-((trans-3-(4-fluorophenyl)piperidin-4-yl)methoxy)-N-(1,2,4-thiadiazol-5-yl)benzenesulfonamide]: the pIC50 is greater than 7.00 on NaV1.7 [1] (read-out: NaV1.7 (IC50 class)) and 7.50 at NaV1.7 [1] (read-out: NaV1.7 IC50).
For `O=S(=O)(Nc1ncns1)c1cc(F)c(OC[C@@H]2CN(CC(F)F)CC[C@H]2c2ccc(Cl)cc2)cc1F` (relative stereo) [Example 83, 4-((trans-4-(4-chlorophenyl)-1-(2,2-difluoroethyl)piperidin-3-yl)methoxy)-2,5-difluoro-N-(1,2,4-thiadiazol-5-yl)benzenesulfonamide], in that order: greater than 7.00 and 7.42.
In turn, `CC(C)NS(=O)(=O)c1ccc(OC[C@@H]2CNCC[C@H]2c2ccc(Cl)cc2)c(C#N)c1` (relative stereo) [Example 90, 4-((trans-4-(4-chlorophenyl)piperidin-3-yl)methoxy)-3-cyano-N-isopropylbenzenesulfonamide] gave a pIC50 against NaV1.7 [2] of less than 5.00.
On to `O=S(=O)(Nc1ncns1)c1cc(F)c(OC[C@@H]2CNCC[C@H]2c2ccc(F)cc2)cc1F` [Example 46, 2,5-difluoro-4-(((3S,4R)-4-(4-fluorophenyl)piperidin-3-yl)methoxy)-N-(1,2,4-thiadiazol-5-yl)benzenesulfonamide], for which the pIC50 at NaV1.7 [1] (read-out: NaV1.7 (IC50 class)) is 6.00 to 7.00; at NaV1.7 [1] (read-out: NaV1.7 IC50), 6.03.
On to `O=S(=O)(Nc1ncns1)c1cc(F)c(OC[C@H]2CNCC[C@@H]2c2ccc(Cl)cc2)cc1F` [Example 77, 4-(((3R,4S)-4-(4-chlorophenyl)piperidin-3-yl)methoxy)-2,5-difluoro-N-(1,2,4-thiadiazol-5-yl)benzenesulfonamide], for which the pIC50 on NaV1.7 [1] (read-out: NaV1.7 (IC50 class)) is greater than 7.00; on NaV1.7 [1] (read-out: NaV1.7 IC50), 8.96.
For the molecule `O=S(=O)(Nc1ncns1)c1cc(F)c(OC[C@@H]2CNCC[C@H]2c2ccc(Cl)cc2)cc1F` [Example 84, 4-(((3S,4R)-4-(4-chlorophenyl)piperidin-3-yl)methoxy)-2,5-difluoro-N-(1,2,4-thiadiazol-5-yl)benzenesulfonamide], the pIC50 on NaV1.7 [1] (read-out: NaV1.7 (IC50 class)) was greater than 7.00.
